# Measurements: the NIST ThermoML archive (doi:10.1016/j.tca.2013.08.002)
# Numbers after ± are expanded uncertainties.
# Columns and labels:
# [1] = mn = molality of the nth substance listed, in mol/kg; details: 101 kPa, Liquid; for speed of sound: Frequency=1.999 MHz, Sing-around technique in a fixed-path interferometer; for mass density: Vibrating tube method
# [2] = 101 kPa, Liquid, Frequency=1.999 MHz, Sing-around technique in a fixed-path interferometer
SMILES,"speed of sound ([1]; 288.15 K, m1 = 0.3) [m/s]","mass density ([1]; 288.15 K, m1 = 0.3) [kg/m3]","speed of sound ([1]; 293.15 K, m1 = 0.3) [m/s]","mass density ([1]; 293.15 K, m1 = 0.3) [kg/m3]","speed of sound ([1]; 298.15 K, m1 = 0.3) [m/s]","speed of sound ([1]; 303.15 K, m1 = 0.3) [m/s]","mass density ([1]; 303.15 K, m1 = 0.3) [kg/m3]","speed of sound ([1]; 308.15 K, m1 = 0.3) [m/s]","speed of sound ([1]; 313.15 K, m1 = 0.3) [m/s]","mass density ([1]; 313.15 K, m1 = 0.3) [kg/m3]","speed of sound ([1]; 318.15 K, m1 = 0.3) [m/s]","mass density ([1]; 318.15 K, m1 = 0.3) [kg/m3]","mass density ([1]; 298.15 K, m1 = 0.3) [kg/m3]","mass density ([1]; 308.15 K, m1 = 0.3) [kg/m3]",speed of sound ([2]; 298.15 K) [m/s],speed of sound ([2]; 308.15 K) [m/s],speed of sound ([2]; 313.15 K) [m/s],"speed of sound ([1]; 298.15 K, m2 = 0) [m/s]","speed of sound ([1]; 308.15 K, m2 = 0) [m/s]","speed of sound ([1]; 313.15 K, m2 = 0) [m/s]"
[Cl-].[Cl-].[Mg+2] [magnesium chloride] + O,1510.3 ± 10,1024.7 ± 2,1518.6 ± 10,1022.7 ± 2,1529.1 ± 10,1540 ± 10,1019.2 ± 2,1551.9 ± 10,1563 ± 10,1014.9 ± 2,1573.4 ± 10,1012.6 ± 2,,,,,,,,
[Cl-].[K+] [potassium chloride] + O,1482.9 ± 10,1019.9 ± 2,1500.8 ± 10,1018.1 ± 2,1518.4 ± 10,1537.8 ± 10,1013.5 ± 2,1548.6 ± 10,1558.8 ± 10,1006.1 ± 2,1568 ± 10,1003.4 ± 2,1016.9 ± 2,1008.5 ± 2,,,,,,
O [water],,,,,,,,,,,,,,,1496.5 ± 10,1519.4 ± 10,1528.9 ± 10,,,
O [water] + C[N+](C)(C)CC(=O)[O-],,,,,,,,,,,,,,,,,,1496.5 ± 10,1519.4 ± 10,1528.9 ± 10
